Measurements taken from US11179412B2, “Methods of treating conditions involving elevated inflammatory response” (University of Pittsburgh—Of the Commonwealth System of …, priority 2017, dated 2021).
Where a name gives a salt, the structure may show the parent alone.

Test system: STING activation (IFNβ release) in iBMDMs
Experiment: IFNβ release ELISA after STING ligand (or LPS) stimulation, iBMDMs
Type: cell-based, mouse
Details: iBMDMs; 3′3′-cGAMP 10 μg/ml, 16 hours; compound 10 μM
Source text: Commercially available enzyme-linked immunosorbent assay (ELISA) kits were used to measure the concentrations of mouse IFNβ (Thermo Fisher Scientific) or human IFNβ (Thermo Fisher Scientific) in culture medium according to the manufacturer's instructions. […]

6H05
fold increase in IFN-β release: 1.18 fold

O=C(O)C(Cc1ccccc1[N+](=O)[O-])=NNc1nc(-c2ccc(Cl)c(Cl)c2)cs1 (mixture of isomers) [4EGI-1]
fold increase in IFN-β release: 4.14 fold

C[C@H]1COC2(CCN(c3nc(=O)c4cc(C(F)(F)F)cc([N+](=O)[O-])c4s3)CC2)O1 (racemic) [BTZ043 Racemate]
fold increase in IFN-β release: 0.69 fold

N[C@@H]1C[C@H]1c1ccccc1 (racemic) [Tranylcypromine (2-PCPA) HCl, Tranylcypromine]
fold increase in IFN-β release: 1.17 fold

COc1cc2c(cc1O)CC[C@@H]1[C@@H]2CC[C@]2(C)[C@@H](O)CC[C@@H]12 [2-Methoxyestradiol (2-MeOE2), 2-Methoxyestradiol]
fold increase in IFN-β release: 2.62 fold

O=[N+]([O-])C=Cc1ccc2c(c1)OCO2 [3,4-Methylenedioxy-β-nitrostyrene]
fold increase in IFN-β release: 0.26 fold

O=C(O)c1ccc(N2C(=O)/C(=C\c3ccc(-c4ccc([N+](=O)[O-])cc4)o3)C=C2c2ccccc2)cc1 [4E1 RCat]
fold increase in IFN-β release: 2.36 fold

CC(C)N(CCC(c1ccccc1)c1cc(CO)ccc1O)C(C)C (stereo not drawn) [5-hydroxymethyl Tolterodine]
fold increase in IFN-β release: 1.10 fold

C=CCNC1=C2C[C@@H](C)C[C@H](OC)[C@H](O)[C@@H](C)/C=C(\C)[C@H](OC(N)=O)[C@@H](OC)/C=C\C=C(/C)C(=O)NC(=CC1=O)C2=O [17-AAG (Tanespimycin), Tanespimycin]
fold increase in IFN-β release: 1.53 fold

CN1CCc2cc3c(cc2[C@H]1[C@@H]1OC(=O)c2c1ccc1c2OCO1)OCO3 [(+)-Bicuculline]
fold increase in IFN-β release: 1.26 fold

Cl.NCc1c[nH]c(=S)n1[C@@H]1CCc2c(F)cc(F)cc2C1 [(R)-Nepicastat HCl]
fold increase in IFN-β release: 2.13 fold

C[C@H](Oc1cc(-c2cnn(C3CCNCC3)c2)cnc1N)c1c(Cl)ccc(F)c1Cl [(S)-crizotinib]
fold increase in IFN-β release: 3.05 fold

N#Cc1c(O)c2c(-c3ccc(-c4ccccc4O)cc3)csc2[nH]c1=O [A-769662]
fold increase in IFN-β release: 2.13 fold

CC1(C)CCC(CN2CCN(c3ccc(C(=O)NS(=O)(=O)c4ccc(NCC5CCOCC5)c([N+](=O)[O-])c4)c(Oc4cnc5[nH]ccc5c4)c3)CC2)=C(c2ccc(Cl)cc2)C1 [ABT-199 (GDC-0199)]
fold increase in IFN-β release: 1.78 fold

CC1(C)CCC(c2ccc(Cl)cc2)=C(CN2CCN(c3ccc(C(=O)NS(=O)(=O)c4ccc(N[C@H](CCN5CCOCC5)CSc5ccccc5)c(S(=O)(=O)C(F)(F)F)c4)cc3)CC2)C1 [ABT-263 (Navitoclax), Navitoclax]
fold increase in IFN-β release: 1.27 fold

CCN(CC)C(=O)c1ccc(C2=CC3(CCNCC3)Oc3cccc(O)c32)cc1 [ADL5859 HCl]
fold increase in IFN-β release: 0.95 fold

O=C(c1ccc(F)cc1)N1CCC[C@H](c2nc(-c3ccc(F)cc3)no2)C1 [ADX-47273]
fold increase in IFN-β release: 1.72 fold

CN(C)Cc1ccc(-c2nc3cccc4c3n2CCNC4=O)cc1 [AG-14361]
fold increase in IFN-β release: 2.41 fold

Cc1ccccc1C(C(=O)NC1CCCCC1)N(C(=O)Cn1ccnc1C)c1cccc(F)c1 (stereo not drawn) [AGI-5198]
fold increase in IFN-β release: 1.13 fold

O=C(Nc1cccc(C(F)(F)F)c1)Nc1cc(S(=O)(=O)NC2CC2)ccc1-c1ccsc1 [AGI-6780]
fold increase in IFN-β release: 2.14 fold

CN1CCCCC1Cn1cc(C(=O)c2cc([N+](=O)[O-])ccc2I)c2ccccc21 (stereo not drawn) [AM1241]
3′3′-cGAMP-induced IFNβ release: promoted | fold increase in IFN-β release: 8.07 fold

CC(=O)Nc1nc2c(Oc3cc(-c4ccc(C(F)(F)F)cc4)ncn3)cccc2s1 [AMG-517]
fold increase in IFN-β release: 1.18 fold

C#CC[C@H](c1nc2cc(Cl)ccc2c(=O)n1Nc1ccccc1)N(CCCN)C(=O)c1cccc(Cl)c1F [ARQ 621]
fold increase in IFN-β release: 1.87 fold

O=C1NC(=O)/C(=C/c2ccc(-c3ccc(F)cc3O)o2)S1 [AS-252424]
3′3′-cGAMP-induced IFNβ release: promoted | fold increase in IFN-β release: 6.84 fold

Cc1cc2c(C(C)C)c(O)c(O)c(C=O)c2c(O)c1-c1c(C)cc2c(C(C)C)c(O)c(O)c(C=O)c2c1O [AT101]
fold increase in IFN-β release: 0.13 fold
